According to ChEMBL document CHEMBL3856233, “Identification of (R)-(2-Chloro-3-(trifluoromethyl)phenyl)(1-(5-fluoropyridin-2-yl)-4-methyl-6,7-dihydro-1H-imidazo[4,5-c]pyridin-5(4H)-yl)methanone (JNJ 54166060), a Small Molecule Antagonist of the P2X7 receptor” (J Med Chem, 2016):
Values after ≈ are worked out from the molar mass of the structure shown.

Assays:
CYP3A4 [1] = biological target: T1, CYP3A4 (Homo sapiens, UniProt P08684); test: Inhibition of CYP3A4 in human liver microsomes using midazolam as substrate assessed as reduction in 1-OH-midazolam formation at 0.01 uM by LC/MS/MS analysis; settings: probe midazolam
CYP3A4 [2] = biological target: T1, CYP3A4; test: Inhibition of CYP3A4 in human liver microsomes using midazolam as substrate assessed as reduction in 1-OH-midazolam formation at 0.02 uM by LC/MS/MS analysis; settings: probe midazolam
CYP3A4 [3] = biological target: T1, CYP3A4; test: Inhibition of CYP3A4 in human liver microsomes using midazolam as substrate assessed as reduction in 4-OH-midazolam formation at 0.01 uM by LC/MS/MS analysis; settings: probe midazolam
CYP3A4 [4] = biological target: T1, CYP3A4; test: Inhibition of CYP3A4 in human liver microsomes using midazolam as substrate assessed as reduction in 4-OH-midazolam formation at 0.02 uM by LC/MS/MS analysis; settings: probe midazolam
P2X purinoceptor 7 [5] = biological target: T2, P2X purinoceptor 7 (Homo sapiens, UniProt Q99572); test: Antagonist activity at recombinant human P2X7 receptor expressed in human 1321N1 cells assessed as inhibition of Bz-ATP-induced Ca2+ flux preincubated for 30 mins followed by agonist addition measured after 180 sec by calcium-4 dye based FLIPR assay; assay type: cell-based
T2 sequence (Q99572 whole entry): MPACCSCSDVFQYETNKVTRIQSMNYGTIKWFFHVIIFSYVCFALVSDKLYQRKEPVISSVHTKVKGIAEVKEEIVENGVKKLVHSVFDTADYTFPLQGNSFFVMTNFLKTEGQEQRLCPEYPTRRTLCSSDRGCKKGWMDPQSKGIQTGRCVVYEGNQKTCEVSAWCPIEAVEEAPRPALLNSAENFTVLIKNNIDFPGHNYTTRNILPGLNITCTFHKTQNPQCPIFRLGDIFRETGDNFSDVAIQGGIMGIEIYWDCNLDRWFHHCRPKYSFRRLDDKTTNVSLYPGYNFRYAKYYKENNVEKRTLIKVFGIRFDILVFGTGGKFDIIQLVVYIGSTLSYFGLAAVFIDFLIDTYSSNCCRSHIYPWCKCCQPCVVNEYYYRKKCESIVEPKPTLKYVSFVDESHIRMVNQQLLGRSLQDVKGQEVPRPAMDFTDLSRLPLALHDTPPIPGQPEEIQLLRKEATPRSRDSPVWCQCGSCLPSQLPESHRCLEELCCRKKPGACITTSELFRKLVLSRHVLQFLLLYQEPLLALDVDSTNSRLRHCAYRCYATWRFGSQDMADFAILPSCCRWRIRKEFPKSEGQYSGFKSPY

P2X purinoceptor 7 [6] = biological target: T3, P2X purinoceptor 7 (Mus musculus, UniProt Q9Z1M0); test: Antagonist activity at recombinant mouse P2X7 receptor expressed in human 1321N1 cells assessed as inhibition of Bz-ATP-induced Ca2+ flux preincubated for 30 mins followed by agonist addition measured after 180 sec by calcium-4 dye based FLIPR assay; assay type: cell-based
T3 sequence (Q9Z1M0 whole entry): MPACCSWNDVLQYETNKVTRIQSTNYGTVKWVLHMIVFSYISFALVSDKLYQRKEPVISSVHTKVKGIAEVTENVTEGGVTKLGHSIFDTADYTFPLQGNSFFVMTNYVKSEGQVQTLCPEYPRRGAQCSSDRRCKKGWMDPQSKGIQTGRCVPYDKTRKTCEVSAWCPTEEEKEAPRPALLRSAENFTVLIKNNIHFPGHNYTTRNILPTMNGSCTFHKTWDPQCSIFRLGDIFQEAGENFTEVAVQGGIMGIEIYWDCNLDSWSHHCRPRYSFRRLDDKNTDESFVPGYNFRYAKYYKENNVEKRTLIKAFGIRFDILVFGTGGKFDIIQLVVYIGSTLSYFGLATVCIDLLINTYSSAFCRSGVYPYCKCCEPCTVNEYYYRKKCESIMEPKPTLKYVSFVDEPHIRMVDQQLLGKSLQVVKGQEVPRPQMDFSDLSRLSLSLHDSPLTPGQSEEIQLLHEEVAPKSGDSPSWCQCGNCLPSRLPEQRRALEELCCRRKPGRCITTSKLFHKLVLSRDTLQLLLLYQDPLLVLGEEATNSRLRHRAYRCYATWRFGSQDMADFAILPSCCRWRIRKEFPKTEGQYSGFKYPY

[7] = Protein binding in human plasma at 1 uM after 6 hrs by LC/MS/MS based equilibrium dialysis method; assay type: ADME, cell-free; settings: read-out: PPB (converted)
[8] = Protein binding in rat plasma at 1 uM after 6 hrs by LC/MS/MS based equilibrium dialysis method; assay type: ADME, cell-free; settings: read-out: PPB (converted)
[9] = Solubility of compound in phosphate buffer at pH 2 at room temperature after 3 days
[10] = Solubility of the compound in phosphate buffer at pH 7 at room temperature after 3 days
in vitro [11] = settings: human, liver microsomes
Description: Extraction ratio in human liver microsomes at 1 uM upto 60 mins in presence of NDPH by LC/MS/MS analysis

in vitro [12] = settings: rat, liver microsomes
Description: Extraction ratio in rat liver microsomes at 1 uM upto 60 mins in presence of NDPH by LC/MS/MS analysis

Cytochrome P450 2C19 = Cytochrome P450 2C19 (Homo sapiens, UniProt P33261); test: Inhibition of CYP2C19 in human liver microsomes using S-mephenytoin as substrate after 15 mins by LC/MS/MS analysis; assay type: ADME
[13] = biological target: Voltage-gated inwardly rectifying potassium channel KCNH2 (Homo sapiens, UniProt Q12809); test: Displacement of [3H]astemizole from human ERG expressed in HEK293 cells by competitive binding assay; assay type: cell-based
P2X purinoceptor 7 [14] = biological target: T4, P2X purinoceptor 7 (Rattus norvegicus, UniProt Q64663); test: Antagonist activity at recombinant rat P2X7 receptor expressed in human 1321N1 cells assessed as inhibition of Bz-ATP-induced Ca2+ flux preincubated for 30 mins followed by agonist addition measured after 180 sec by calcium-4 dye based FLIPR assay; assay type: cell-based
T4 sequence (Q64663 whole entry): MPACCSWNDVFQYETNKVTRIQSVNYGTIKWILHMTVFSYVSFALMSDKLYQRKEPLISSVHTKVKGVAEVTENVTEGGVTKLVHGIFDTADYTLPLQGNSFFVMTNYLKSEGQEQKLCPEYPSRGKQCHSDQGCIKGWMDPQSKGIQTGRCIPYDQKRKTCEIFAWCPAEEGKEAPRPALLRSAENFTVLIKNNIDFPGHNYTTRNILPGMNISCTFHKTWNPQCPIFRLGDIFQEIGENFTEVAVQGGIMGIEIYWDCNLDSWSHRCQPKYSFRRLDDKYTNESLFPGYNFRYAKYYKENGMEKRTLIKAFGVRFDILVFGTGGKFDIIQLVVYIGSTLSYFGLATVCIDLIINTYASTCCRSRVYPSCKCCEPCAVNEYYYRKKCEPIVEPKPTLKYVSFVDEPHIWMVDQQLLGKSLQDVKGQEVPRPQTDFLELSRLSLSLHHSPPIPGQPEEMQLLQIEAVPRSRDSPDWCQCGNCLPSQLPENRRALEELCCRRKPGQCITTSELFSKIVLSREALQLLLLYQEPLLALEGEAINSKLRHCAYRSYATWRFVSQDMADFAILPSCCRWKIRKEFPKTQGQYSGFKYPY

Cytochrome P450 2D6 = Cytochrome P450 2D6 (Homo sapiens, UniProt P10635); test: Inhibition of CYP2D6 in human liver microsomes using dextromethorphan as substrate after 15 mins by LC/MS/MS analysis; assay type: ADME
Cytochrome P450 1A2 = biological target: T5, Cytochrome P450 1A2 (Homo sapiens, UniProt P05177); test: Inhibition of CYP1A2 in human liver microsomes using phenacetin as substrate after 15 mins by LC/MS/MS analysis; assay type: ADME
T5 sequence (P05177 whole entry): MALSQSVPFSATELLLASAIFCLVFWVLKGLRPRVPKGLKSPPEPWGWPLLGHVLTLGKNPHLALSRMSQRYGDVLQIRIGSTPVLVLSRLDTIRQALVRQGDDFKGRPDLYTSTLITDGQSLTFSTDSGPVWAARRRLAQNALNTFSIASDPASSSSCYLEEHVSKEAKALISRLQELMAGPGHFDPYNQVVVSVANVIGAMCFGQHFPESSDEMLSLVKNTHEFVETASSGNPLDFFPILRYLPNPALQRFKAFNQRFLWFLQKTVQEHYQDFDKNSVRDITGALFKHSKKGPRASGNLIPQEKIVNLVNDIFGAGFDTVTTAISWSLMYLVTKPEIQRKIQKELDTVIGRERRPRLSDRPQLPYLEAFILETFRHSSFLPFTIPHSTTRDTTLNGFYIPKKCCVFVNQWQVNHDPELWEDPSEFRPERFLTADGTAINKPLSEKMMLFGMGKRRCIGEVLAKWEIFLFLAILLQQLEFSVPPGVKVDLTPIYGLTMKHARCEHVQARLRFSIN

Cytochrome P450 2C8 = biological target: T6, Cytochrome P450 2C8 (Homo sapiens, UniProt P10632); test: Inhibition of CYP2C8 in human liver microsomes using paclitaxel as substrate after 15 mins by LC/MS/MS analysis; assay type: ADME
T6 sequence (P10632 whole entry): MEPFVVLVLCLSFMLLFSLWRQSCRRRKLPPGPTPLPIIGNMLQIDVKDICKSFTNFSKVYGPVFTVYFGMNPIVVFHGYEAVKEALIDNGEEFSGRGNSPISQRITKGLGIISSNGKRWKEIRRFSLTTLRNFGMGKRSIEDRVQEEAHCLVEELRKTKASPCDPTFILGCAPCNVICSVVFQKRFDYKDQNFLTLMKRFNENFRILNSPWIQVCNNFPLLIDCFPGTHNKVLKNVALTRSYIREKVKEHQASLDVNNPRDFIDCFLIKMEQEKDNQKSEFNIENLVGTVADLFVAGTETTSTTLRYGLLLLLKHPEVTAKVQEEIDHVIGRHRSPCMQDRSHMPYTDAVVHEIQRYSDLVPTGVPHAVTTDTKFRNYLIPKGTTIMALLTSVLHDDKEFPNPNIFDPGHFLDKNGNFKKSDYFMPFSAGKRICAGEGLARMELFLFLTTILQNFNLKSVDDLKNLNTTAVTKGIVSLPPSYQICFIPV

Cytochrome P450 2C9 = Cytochrome P450 2C9 (Homo sapiens, UniProt P11712); test: Inhibition of CYP2C9 in human liver microsomes using diclofenac as substrate after 15 mins by LC/MS/MS analysis; assay type: ADME
Sequence of Cytochrome P450 2C9 (P11712 whole entry): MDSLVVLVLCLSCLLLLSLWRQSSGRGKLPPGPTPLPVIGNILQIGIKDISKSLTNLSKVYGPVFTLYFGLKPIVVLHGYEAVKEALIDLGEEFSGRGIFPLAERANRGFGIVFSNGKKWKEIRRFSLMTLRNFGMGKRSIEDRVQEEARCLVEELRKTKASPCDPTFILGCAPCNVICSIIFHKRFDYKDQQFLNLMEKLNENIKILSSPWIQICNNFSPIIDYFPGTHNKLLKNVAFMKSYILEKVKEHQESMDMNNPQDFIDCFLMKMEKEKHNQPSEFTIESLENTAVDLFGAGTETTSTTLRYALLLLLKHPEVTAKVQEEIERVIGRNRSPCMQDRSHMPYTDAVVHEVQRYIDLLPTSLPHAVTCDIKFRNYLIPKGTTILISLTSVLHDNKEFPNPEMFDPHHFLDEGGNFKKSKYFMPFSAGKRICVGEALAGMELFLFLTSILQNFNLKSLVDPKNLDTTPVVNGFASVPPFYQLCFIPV

T1 sequence (P08684 whole entry): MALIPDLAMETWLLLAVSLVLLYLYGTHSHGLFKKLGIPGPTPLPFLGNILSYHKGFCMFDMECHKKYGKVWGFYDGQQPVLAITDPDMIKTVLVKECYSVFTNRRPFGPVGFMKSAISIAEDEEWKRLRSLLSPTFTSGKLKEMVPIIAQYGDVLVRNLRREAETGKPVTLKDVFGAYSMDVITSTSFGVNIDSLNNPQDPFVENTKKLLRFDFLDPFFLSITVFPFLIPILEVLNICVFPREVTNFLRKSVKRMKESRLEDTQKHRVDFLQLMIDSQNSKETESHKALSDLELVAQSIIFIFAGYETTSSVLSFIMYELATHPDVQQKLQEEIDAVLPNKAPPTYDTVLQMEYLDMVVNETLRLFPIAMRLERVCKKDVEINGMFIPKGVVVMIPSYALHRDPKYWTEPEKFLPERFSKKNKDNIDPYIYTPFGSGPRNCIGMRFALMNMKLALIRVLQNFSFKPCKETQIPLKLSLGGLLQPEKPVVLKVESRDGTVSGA
Sequence of Voltage-gated inwardly rectifying potassium channel KCNH2 (Q12809 whole entry): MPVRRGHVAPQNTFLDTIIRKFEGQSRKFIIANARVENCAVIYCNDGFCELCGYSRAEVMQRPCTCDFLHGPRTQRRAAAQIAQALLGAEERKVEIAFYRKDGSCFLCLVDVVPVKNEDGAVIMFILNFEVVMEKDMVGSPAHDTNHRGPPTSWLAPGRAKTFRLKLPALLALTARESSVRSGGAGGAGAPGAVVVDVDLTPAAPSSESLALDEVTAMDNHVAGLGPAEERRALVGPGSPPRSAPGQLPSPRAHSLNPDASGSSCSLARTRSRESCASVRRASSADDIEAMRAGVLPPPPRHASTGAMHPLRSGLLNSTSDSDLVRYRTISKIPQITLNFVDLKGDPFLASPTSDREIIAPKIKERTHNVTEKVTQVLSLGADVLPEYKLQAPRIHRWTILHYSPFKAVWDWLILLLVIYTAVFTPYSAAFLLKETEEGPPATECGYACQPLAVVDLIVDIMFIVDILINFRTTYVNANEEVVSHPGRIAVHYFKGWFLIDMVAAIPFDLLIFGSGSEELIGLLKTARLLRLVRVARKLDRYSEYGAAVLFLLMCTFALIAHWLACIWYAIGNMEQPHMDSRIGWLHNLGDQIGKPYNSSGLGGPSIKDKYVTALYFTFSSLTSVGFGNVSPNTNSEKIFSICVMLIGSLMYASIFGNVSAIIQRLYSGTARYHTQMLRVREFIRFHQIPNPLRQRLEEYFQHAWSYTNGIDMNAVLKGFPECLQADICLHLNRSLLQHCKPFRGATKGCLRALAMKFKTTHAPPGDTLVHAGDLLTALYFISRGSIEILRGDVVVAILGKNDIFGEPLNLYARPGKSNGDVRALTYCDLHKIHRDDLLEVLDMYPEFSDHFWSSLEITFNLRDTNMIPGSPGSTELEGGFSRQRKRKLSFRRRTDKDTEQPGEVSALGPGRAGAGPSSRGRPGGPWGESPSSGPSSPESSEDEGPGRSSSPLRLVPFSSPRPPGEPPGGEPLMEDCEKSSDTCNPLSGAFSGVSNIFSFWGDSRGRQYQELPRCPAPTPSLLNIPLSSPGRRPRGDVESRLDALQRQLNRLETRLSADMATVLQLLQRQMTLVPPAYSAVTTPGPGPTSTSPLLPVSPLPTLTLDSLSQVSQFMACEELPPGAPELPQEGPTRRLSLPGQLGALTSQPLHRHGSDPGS
Sequence of Cytochrome P450 2C19 (P33261 whole entry): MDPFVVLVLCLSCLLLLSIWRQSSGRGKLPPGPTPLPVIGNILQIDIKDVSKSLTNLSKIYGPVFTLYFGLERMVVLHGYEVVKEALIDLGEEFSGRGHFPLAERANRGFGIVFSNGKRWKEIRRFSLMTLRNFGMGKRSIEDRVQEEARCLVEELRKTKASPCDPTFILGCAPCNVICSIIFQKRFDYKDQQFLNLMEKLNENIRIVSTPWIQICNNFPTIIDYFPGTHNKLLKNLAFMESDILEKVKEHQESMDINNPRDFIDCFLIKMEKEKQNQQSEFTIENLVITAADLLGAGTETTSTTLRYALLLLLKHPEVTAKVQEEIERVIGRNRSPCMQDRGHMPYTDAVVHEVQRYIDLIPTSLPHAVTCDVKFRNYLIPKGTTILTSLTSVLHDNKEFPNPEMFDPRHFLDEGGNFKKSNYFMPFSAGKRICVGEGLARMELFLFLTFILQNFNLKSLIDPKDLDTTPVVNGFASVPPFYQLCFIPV
Sequence of Cytochrome P450 2D6 (P10635 whole entry): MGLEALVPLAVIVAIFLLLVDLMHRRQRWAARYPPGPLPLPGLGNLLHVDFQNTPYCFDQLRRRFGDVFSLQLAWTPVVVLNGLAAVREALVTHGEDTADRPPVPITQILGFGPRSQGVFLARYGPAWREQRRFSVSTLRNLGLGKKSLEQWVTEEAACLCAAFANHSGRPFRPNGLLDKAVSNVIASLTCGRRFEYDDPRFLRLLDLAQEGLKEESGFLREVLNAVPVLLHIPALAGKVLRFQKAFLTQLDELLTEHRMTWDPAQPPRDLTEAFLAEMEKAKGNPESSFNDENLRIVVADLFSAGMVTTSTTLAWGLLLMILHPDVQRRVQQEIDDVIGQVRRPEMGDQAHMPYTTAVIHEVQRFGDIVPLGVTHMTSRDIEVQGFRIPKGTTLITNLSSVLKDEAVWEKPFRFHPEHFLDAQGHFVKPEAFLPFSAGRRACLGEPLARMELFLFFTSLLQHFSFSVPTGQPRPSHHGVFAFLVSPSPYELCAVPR

Question: With `CC(=O)N1CCN(c2ccc(OCC3COC(Cn4ccnc4)(c4ccc(Cl)cc4Cl)O3)cc2)CC1` (configuration not stated) [KETOCONAZOLE] as the molecule, how does the inhibition at 0.01 µM (CYP3A4 [1]) read?
Answer: 53%

Question: What about the inhibition at 0.02 µM (CYP3A4 [2]) of the same molecule?
Answer: 70%

Question: What about the inhibition at 0.01 µM (CYP3A4 [3]) of the same molecule?
Answer: 57%

Question: What about the inhibition at 0.02 µM (CYP3A4 [4]) of the same molecule?
Answer: 74%

Question: For `CC1c2ncn(-c3ncccc3F)c2CCN1C(=O)c1cccc(C(F)(F)F)c1Cl` (configuration not stated), which IC50 (P2X purinoceptor 7 [5]) is on record?
Answer: 9 nM

Question: With `C[C@@H]1c2ncn(-c3ccc(F)cc3)c2CCN1C(=O)c1cccc(C(F)(F)F)c1Cl` as the molecule, how does the IC50 (P2X purinoceptor 7 [6]) read?
Answer: 45 nM

Question: What about the fraction unbound at 6 h, 1 µM [7] of the same molecule?
Answer: 0.04

Question: And the fraction unbound at 6 h, 1 µM [8]?
Answer: 0.025

Question: What about the solubility at 72 h [9] of the same molecule?
Answer: 165 µM (≈ 72.2 µg/mL)

Question: And the solubility at 72 h [10]?
Answer: 14 µM (≈ 6.13 µg/mL)

Question: With `O=C(c1cccc(C(F)(F)F)c1Cl)N1CCc2c(ncn2-c2ccccc2)C1` as the molecule, how does the hepatic extraction ratio at 1 h, 1 µM (in vitro [11]) read?
Answer: 0.94

Question: And the hepatic extraction ratio at 1 h, 1 µM (in vitro [12])?
Answer: 0.89

Question: Which IC50 (P2X purinoceptor 7 [6]) does the source give for `C[C@@H]1c2ncn(-c3ncc(F)cn3)c2CCN1C(=O)c1cccc(C(F)(F)F)c1Cl` here?
Answer: 38 nM

Question: And the fraction unbound at 6 h, 1 µM [7]?
Answer: 0.048

Question: What about the fraction unbound at 6 h, 1 µM [8] of the same molecule?
Answer: 0.038

Question: What about the IC50 (Cytochrome P450 2C19) of the same molecule?
Answer: 7800 nM

Question: What about the IC50 [13] of the same molecule?
Answer: > 10000 nM

Question: What about the solubility at 72 h [9] of the same molecule?
Answer: > 400 µM

Question: What about the solubility at 72 h [10] of the same molecule?
Answer: 4 µM (≈ 1.76 µg/mL)

Question: With `O=C(c1cccc(C(F)(F)F)c1Cl)N1CCc2c(ncn2-c2cnccn2)C1` as the molecule, how does the IC50 (P2X purinoceptor 7 [5]) read?
Answer: 9 nM

Question: For `CC1c2ncn(-c3cnccn3)c2CCN1C(=O)c1cccc(C(F)(F)F)c1Cl` (configuration not stated), which IC50 (P2X purinoceptor 7 [14]) is on record?
Answer: 1230 nM

Question: What about the IC50 (P2X purinoceptor 7 [5]) of the same molecule?
Answer: 77 nM

Question: What about the hepatic extraction ratio at 1 h, 1 µM (in vitro [11]) of the same molecule?
Answer: 0.77

Question: What about the hepatic extraction ratio at 1 h, 1 µM (in vitro [12]) of the same molecule?
Answer: 0.84

Question: For `O=C(c1cccc(C(F)(F)F)c1F)N1CCc2c(ncn2-c2ccc(F)cn2)C1`, which IC50 (P2X purinoceptor 7 [14]) is on record?
Answer: > 10000 nM

Question: Which IC50 (P2X purinoceptor 7 [5]) does the source give for `O=C(c1cccc(C(F)(F)F)c1Cl)N1CCc2c(ncn2-c2ccccn2)C1` here?
Answer: 4 nM

Question: For `C[C@@H]1c2ncn(-c3ccccn3)c2CCN1C(=O)c1cccc(C(F)(F)F)c1Cl`, which IC50 (P2X purinoceptor 7 [6]) is on record?
Answer: 20 nM

Question: And the fraction unbound at 6 h, 1 µM [7]?
Answer: 0.047

Question: What about the fraction unbound at 6 h, 1 µM [8] of the same molecule?
Answer: 0.026

Question: What about the IC50 (Cytochrome P450 2D6) of the same molecule?
Answer: > 10000 nM

Question: And the IC50 (Cytochrome P450 2C19)?
Answer: > 10000 nM

Question: What about the IC50 (Cytochrome P450 1A2) of the same molecule?
Answer: > 10000 nM

Question: And the IC50 (Cytochrome P450 2C8)?
Answer: > 10000 nM

Question: And the IC50 (Cytochrome P450 2C9)?
Answer: > 10000 nM

Question: What about the IC50 [13] of the same molecule?
Answer: > 10000 nM

Question: And the solubility at 72 h [9]?
Answer: > 400 µM

Question: What about the solubility at 72 h [10] of the same molecule?
Answer: 20 µM (≈ 8.42 µg/mL)
